Experimental data: publication PMC6010069, “The RFK catalytic cycle of the pathogen Streptococcus pneumoniae shows species-specific features in prokaryotic FMN synthesis” (Journal of Enzyme Inhibition and Medicinal Chemistry, 2018)
Where two headings read alike, the source gives them in different places.

Columns and labels:
[1] = target: T1, SpnFADS (Streptococcus pneumoniae, UniProt A0A0H2UPY5); test: RFK activity, HPLC of flavins, global Lineweaver-Burk fit; assay type: biochemical
T1 construct: gene SP_1110; full-length bifunctional enzyme from pET-15b in E. coli BL21 Star (DE3), His6-tag removed; riboflavin kinase activity of the C-terminal module; functional form monomer
T1 sequence (A0A0H2UPY5 1-305): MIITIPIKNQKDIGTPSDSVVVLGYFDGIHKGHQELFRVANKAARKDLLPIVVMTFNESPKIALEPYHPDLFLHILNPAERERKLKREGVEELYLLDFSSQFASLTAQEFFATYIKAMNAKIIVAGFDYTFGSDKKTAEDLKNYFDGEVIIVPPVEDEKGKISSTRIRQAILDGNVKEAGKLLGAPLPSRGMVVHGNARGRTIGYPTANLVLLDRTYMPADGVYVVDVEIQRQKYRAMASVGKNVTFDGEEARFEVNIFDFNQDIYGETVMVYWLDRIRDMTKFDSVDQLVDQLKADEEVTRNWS
Description: (§1) RFK activity, HPLC of flavins, global Lineweaver-Burk fit on SpnFADS

[2] = target: T1, SpnFADS; test: biochemical; set-up: Isothermal titration calorimetry, ligand titrated into free or ligand-pre-bound SpnFADS, 20 °C, PIPES pH 7.0
Procedure: We performed isothermal titration calorimetry (ITC) assays to elucidate both the ligand binding order and the thermodynamic inhibition produced by the binding of the FLV and ANP ligands. Titrations were performed on an AutoITC200 (MicroCal, Malvern, UK) thermostated at 20 °C, as previously described. Approximately 25 µM SpnFADS contained in a 200 µL-cell was titrated with solutions of 180 µM RF, 250 µM FMN, or 350 µM ATP or ADP. Additionally, titrations with ANP ligands into mixtures that contain the protein pre-bound to FLV ligands were performed, as well as titrations with FLV ligands into pre-bound SpnFADS:ANP complexes. The titrations were conducted through 19 stepwise injections of 2 µL of the titrating ligand to the calorimetric cell, as previously described[21]^,[26]. Both the ligands and the protein were dissolved in 20 mM PIPES, pH 7.0, either in presence of 0.8 mM MgCl2 or in absence of this cation, and degassed before the titration. The enthalpy change (ΔH), the association constant (Ka), and the binding stoichiometry (N) were obtained through non-linear least squares regression of the data using a homemade fitting routine corresponding to a model for one or two independent binding sites, implemented in Origin 7.0 (OriginLab, Northampton, MA, USA), as previously described[21]^,[26]. The Gibbs free energy (ΔG), the entropic contribution (−TΔS), and the dissociation constant (Kd) were obtained using well-known thermodynamic equations. Cooperativity constants (α) between ANP and FLV ligands were obtained as previously described[23]^,[27]^,[28]. Particular titrations with ANP ligands into mixtures of the protein and 100 µM FLV were fit to a homemade fitting routine corresponding to a model that considers the influence of the FLV ligand in the protein binding affinity for the ANP ligand[27]^,[28]. Experiments were performed in triplicate. The errors considered in the measured parameters (±15% in Kd and Ka values, ±0.3 kcal mol^−1 in ΔG, ΔH, and −TΔS and ±20% in α) were assumed to be larger than the standard deviation between replicates and the numerical error after fitting analysis.

[3] = target: T1, SpnFADS; test: stopped-flow flavin fluorescence, Kd from koff and kon; assay type: binding
Description: stopped-flow flavin fluorescence, Kd from koff and kon on SpnFADS

[4] = substrate: Nc1ncnc2c1ncn2[C@@H]1O[C@H](COP(=O)(O)OP(=O)(O)OP(=O)(O)O)[C@@H](O)[C@H]1O; test: RFK activity, HPLC of flavins, global Lineweaver-Burk fit; assay type: biochemical, Streptococcus pneumoniae; conditions: co-substrate RF, 20 mM PIPES pH 7.0, 0.8 mM MgCl2, 25 °C
Description: as §1

[5] = substrate: Cc1cc2nc3c(=O)[nH]c(=O)nc-3n(C[C@H](O)[C@H](O)[C@H](O)CO)c2cc1C; test: as above; assay type: biochemical, Streptococcus pneumoniae; conditions: co-substrate ATP, 20 mM PIPES pH 7.0, 0.8 mM MgCl2, 25 °C
Description: as §1

[6] = enzyme pre-bound to ADP, 0.8 mM MgCl2
[7] = enzyme pre-bound to ADP, no MgCl2, read-out: Kd (μM), 0.0 mM MgCl2

Molecule `Nc1ncnc2c1ncn2[C@@H]1O[C@H](COP(=O)(O)OP(=O)(O)O)[C@@H](O)[C@H]1O` [ADP, adenosine 5′-diphosphate] has a Ki ([1]; read-out: Ki^ADP) of 130000 ± 16000 nM.

Work on `Cc1cc2nc3c(=O)[nH]c(=O)nc-3n(C[C@H](O)[C@H](O)[C@H](O)CO)c2cc1C` [RF, riboflavin] yielded a Kd [2, 6] of 1.6 µM, a Kd [2, 7] of 0.3 µM and a Kd ([2]; enzyme pre-bound to ATP, no MgCl2, read-out: Kd (μM), 0.0 mM MgCl2) of 2.5 µM. The Kd [3] was 570 ± 140 nM.

Molecule `Cc1cc2nc3c(=O)[nH]c(=O)nc-3n(C[C@H](O)[C@H](O)[C@H](O)COP(=O)(O)O)c2cc1C` [FMN, flavin mononucleotide] has a Kd [2, 6] of 2.3 µM, a Kd [2, 7] of 7.9 µM and a Kd ([2]; enzyme pre-bound to ATP, 0.8 mM MgCl2) of 1.6 µM. For the same molecule, the Kd [3] was 760 ± 240 nM and the Ki ([1]; read-out: Ki^FMN) was 1300 ± 400 nM.

B1: SpnFADS (Streptococcus pneumoniae TIGR4) (protein)
chain: T1 sequence (A0A0H2UPY5 1-305)
notes: full-length bifunctional enzyme from pET-15b in E. coli BL21 Star (DE3), His6-tag removed; riboflavin kinase activity of the C-terminal module; functional form monomer
B1 was tested, and the Km [4] was 75 ± 7 µM, the kcat [4] was 0.917 ± 0.033 s⁻¹ and the Km [5] was 1.2 ± 0.3 µM. The kcat [5] was 0.917 ± 0.033 s⁻¹.
